Experimental data: patent US6054435A, “6-O-substituted macrolides having antibacterial activity” (priority 1999, dated 2000)
≈ marks a conversion by molar mass, not a printed value.

Tests used:
Test in all cases: in vitro antibacterial activity (MIC), agar dilution
Assay type in all cases: cell-based
[1] = tested on: Staphylococcus aureus CMX 642A; conditions: organism code DD; BHI agar, 35-37° C., 20 to 24 hours; unit assumed
In short: (§1)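 MIC was taken by eye as the lowest drug level showing no growth, only haze or isolated colonies relative to the growth control. Organisms were replicator-spotted at 1:100 (Streptococcus 1:10) onto BHI agar plates containing serial compound dilutions, with a same-class reference antibiotic plate included.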

[2] = tested on: Micrococcus luteus ATCC 9341; conditions: organism code OO; BHI agar, 35-37° C., 20 to 24 hours; unit assumed
In short: (§2)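 BHI agar incorporation method; twelve compound concentrations. Streptococcus and other slow growers inoculated at 1:10, other strains at 1:100. Visual MIC read-out versus growth control.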

[3] = tested on: Staphylococcus aureus CMX 553; conditions: organism code FF; BHI agar, 35-37° C., 20 to 24 hours; unit assumed
In short: as §1

[4] = tested on: Streptococcus pyogenes PIU 2548; conditions: organism code NN; BHI agar, 35-37° C., 20 to 24 hours; unit assumed
In short: as §1

[5] = tested on: Nocardia Asteroides ATCC9970; conditions: organism code VV; BHI agar, 35-37° C., 20 to 24 hours; unit assumed
In short: as §1

[6] = tested on: Streptococcus Pneumonia GYR 1171; conditions: organism code YY; BHI agar, 35-37° C., 20 to 24 hours; unit assumed
In short: as §1

[7] = tested on: Streptococcus agalactiae CMX 508; conditions: organism code KK; BHI agar, 35-37° C., 20 to 24 hours; unit assumed
In short: as §1

[8] = tested on: Staphylococcus aureus ATCC 6538P; conditions: organism code AA; BHI agar, 35-37° C., 20 to 24 hours; unit assumed
In short: as §1

[9] = tested on: Streptococcus bovis A-5169; conditions: organism code JJ; BHI agar, 35-37° C., 20 to 24 hours; unit assumed
In short: as §1

[10] = tested on: Streptococcus pyogenes EES61; conditions: organism code LL; BHI agar, 35-37° C., 20 to 24 hours; unit assumed
In short: as §1

[11] = tested on: Haemophilis Influenzae DILL AMP R; conditions: organism code WW; BHI agar, 35-37° C., 20 to 24 hours; unit assumed
In short: as §1

[12] = tested on: Staphylococcus aureus NCTC10649M; conditions: organism code EE; BHI agar, 35-37° C., 20 to 24 hours; unit assumed
In short: as §1

[13] = tested on: Enterococcus faecium ATCC 8043; conditions: organism code II; BHI agar, 35-37° C., 20 to 24 hours; unit assumed
In short: as §1

[14] = tested on: Escherichia coli JUHL; conditions: organism code QQ; BHI agar, 35-37° C., 20 to 24 hours; unit assumed
In short: as §1

[15] = tested on: Mycobacterium smegmatis ATCC 114; conditions: organism code UU; BHI agar, 35-37° C., 20 to 24 hours; unit assumed
In short: as §1

[16] = tested on: Staphylococcus aureus 1775; conditions: organism code GG; BHI agar, 35-37° C., 20 to 24 hours; unit assumed
In short: as §1

[17] = tested on: Escherichia coli SS; conditions: organism code RR; BHI agar, 35-37° C., 20 to 24 hours; unit assumed
In short: as §1

[18] = tested on: Streptococcus Pneumonia 5979; conditions: organism code ZZ; BHI agar, 35-37° C., 20 to 24 hours; unit assumed
In short: as §1

[19] = tested on: Staphylococcus aureus A5177; conditions: organism code BB; BHI agar, 35-37° C., 20 to 24 hours; unit assumed
In short: as §1

[20] = tested on: Streptococcus pyogenes 930; conditions: organism code MM; BHI agar, 35-37° C., 20 to 24 hours; unit assumed
In short: as §1

[21] = tested on: Streptococcus Pneumonia 5649; conditions: organism code ZZA; BHI agar, 35-37° C., 20 to 24 hours; unit assumed
In short: as §1

[22] = tested on: Candida albicans CCH 442; conditions: organism code TT; BHI agar, 35-37° C., 20 to 24 hours; unit assumed
In short: as §1

[23] = tested on: Micrococcus luteus ATCC 4698; conditions: organism code PP; BHI agar, 35-37° C., 20 to 24 hours; unit assumed
In short: as §2

[24] = tested on: Streptococcus Pneumonia ATCC6303; conditions: organism code XX; BHI agar, 35-37° C., 20 to 24 hours; unit assumed
In short: as §1

[25] = tested on: Escherichia coli DC-2; conditions: organism code SS; BHI agar, 35-37° C., 20 to 24 hours; unit assumed
In short: as §1

[26] = tested on: Staphylococcus epidermidis 3519; conditions: organism code HH; BHI agar, 35-37° C., 20 to 24 hours; unit assumed
In short: as §1

[27] = tested on: Staphylococcus aureus A-5278; conditions: organism code CC; BHI agar, 35-37° C., 20 to 24 hours; unit assumed
In short: as §1

Compound | MIC [1] | MIC [2] | MIC [3] | MIC [4] | MIC [5] | MIC [6] | MIC [7] | MIC [8] | MIC [9] | MIC [10] | MIC [11] | MIC [12] | MIC [13] | MIC [14] | MIC [15] | MIC [16] | MIC [17] | MIC [18] | MIC [19] | MIC [20] | other results
CC[C@H]1OC(=O)[C@H](C)C(=O)[C@H](C)[C@@H](O[C@@H]2O[C@H](C)C[C@H](N(C)C)[C@H]2O)[C@](C)(OC/C=C/c2ccc3ncc(-c4ccco4)cc3c2)C[C@@H](C)C(=O)[C@H](C)[C@H]2NC(=O)O[C@@]21C [Example 39] | 0.2 µg/mL (≈ 0.24 µM) | 0.02 µg/mL (≈ 0.024 µM) | 0.2 µg/mL (≈ 0.24 µM) | 0.2 µg/mL (≈ 0.24 µM) | 0.1 µg/mL (≈ 0.12 µM) | 0.03 µg/mL (≈ 0.0361 µM) | 0.01 µg/mL (≈ 0.012 µM) | 0.2 µg/mL (≈ 0.24 µM) | 0.01 µg/mL (≈ 0.012 µM) | 0.01 µg/mL (≈ 0.012 µM) | 4 µg/mL (≈ 4.81 µM) | 0.2 µg/mL (≈ 0.24 µM) | 0.1 µg/mL (≈ 0.12 µM) | > 100 µg/mL | 0.39 µg/mL (≈ 0.469 µM) | > 100 µg/mL | 0.78 µg/mL (≈ 0.937 µM) | 2 µg/mL (≈ 2.4 µM) | 0.2 µg/mL (≈ 0.24 µM) | 6.2 µg/mL (≈ 7.45 µM) | MIC [21]: 0.25 µg/mL (≈ 0.3 µM); MIC [22]: > 100 µg/mL; MIC [23]: 0.2 µg/mL (≈ 0.24 µM); MIC [24]: 0.06 µg/mL (≈ 0.0721 µM); MIC [25]: > 100 µg/mL; MIC [26]: 0.2 µg/mL (≈ 0.24 µM); MIC [27]: > 100 µg/mL
CC[C@H]1OC(=O)[C@H](C)C(=O)[C@H](C)[C@@H](O[C@@H]2O[C@H](C)C[C@H](N(C)C)[C@H]2O)[C@](C)(OCC#Cc2ccc(-c3ccc(C=O)o3)cc2)C[C@@H](C)C(=O)[C@H](C)[C@H]2NC(=O)O[C@@]21C [Example 24] | 0.39 µg/mL (≈ 0.483 µM) | 0.02 µg/mL (≈ 0.0248 µM) | 0.39 µg/mL (≈ 0.483 µM) | 0.78 µg/mL (≈ 0.967 µM) | 0.1 µg/mL (≈ 0.124 µM) | 0.03 µg/mL (≈ 0.0372 µM) | 0.1 µg/mL (≈ 0.124 µM) | 0.39 µg/mL (≈ 0.483 µM) | 0.1 µg/mL (≈ 0.124 µM) | 0.1 µg/mL (≈ 0.124 µM) | 8 µg/mL (≈ 9.91 µM) | 0.39 µg/mL (≈ 0.483 µM) | 0.2 µg/mL (≈ 0.248 µM) | > 100 µg/mL | 3.1 µg/mL (≈ 3.84 µM) | > 100 µg/mL | 1.56 µg/mL (≈ 1.93 µM) | 2 µg/mL (≈ 2.48 µM) | 0.39 µg/mL (≈ 0.483 µM) | 25 µg/mL (≈ 31 µM) | MIC [21]: 0.25 µg/mL (≈ 0.31 µM); MIC [22]: > 100 µg/mL; MIC [23]: 0.39 µg/mL (≈ 0.483 µM); MIC [24]: 0.03 µg/mL (≈ 0.0372 µM); MIC [25]: > 100 µg/mL; MIC [26]: 0.39 µg/mL (≈ 0.483 µM); MIC [27]: > 100 µg/mL
CC[C@H]1OC(=O)[C@H](C)C(=O)[C@H](C)[C@@H](O[C@@H]2O[C@H](C)C[C@H](N(C)C)[C@H]2O)[C@](C)(OCC#Cc2ccc(-c3cncc(C(N)=O)c3)s2)C[C@@H](C)C(=O)[C@H](C)[C@H]2NC(=O)O[C@@]21C [Example 9] | 0.1 µg/mL (≈ 0.119 µM) | 0.02 µg/mL (≈ 0.0238 µM) | 0.1 µg/mL (≈ 0.119 µM) | 0.2 µg/mL (≈ 0.238 µM) | 0.1 µg/mL (≈ 0.119 µM) | ≤ 0.004 µg/mL | 0.02 µg/mL (≈ 0.0238 µM) | 0.1 µg/mL (≈ 0.119 µM) | 0.02 µg/mL (≈ 0.0238 µM) | 0.02 µg/mL (≈ 0.0238 µM) | 2 µg/mL (≈ 2.38 µM) | 0.2 µg/mL (≈ 0.238 µM) | 0.05 µg/mL (≈ 0.0596 µM) | 50 µg/mL (≈ 59.6 µM) | 6.2 µg/mL (≈ 7.39 µM) | > 100 µg/mL | 0.78 µg/mL (≈ 0.93 µM) | 0.03 µg/mL (≈ 0.0358 µM) | 0.1 µg/mL (≈ 0.119 µM) | 0.2 µg/mL (≈ 0.238 µM) | MIC [21]: 0.25 µg/mL (≈ 0.298 µM); MIC [22]: > 100 µg/mL; MIC [23]: 0.1 µg/mL (≈ 0.119 µM); MIC [24]: ≤ 0.004 µg/mL; MIC [25]: 50 µg/mL (≈ 59.6 µM); MIC [26]: 0.1 µg/mL (≈ 0.119 µM); MIC [27]: > 100 µg/mL
